Experiment [1] concerns human CD4 T cells. In words: Calcium flux in CD4 T cells, thapsigargin. The experiment is classed as cell-based. Particulars: BTP2 1μM, thapsigargin 1μM, monitored for 10 minutes. As to the method: (§1) T cells were loaded with 3μM each of Fluo4 and Fura red (Molecular Probes, Invitrogen) for 45 minutes in the dark at 37°C in cell loading medium (DMEM medium with 10mM HEPES and 10% fetal calf serum) in the presence of 0.01% pluronic acid (Molecular Probes). Dye-loaded cells were rinsed twice with loading medium, incubated with 10μg/ml mouse anti-CD3 (BD Biosciences) and 2.5μg/ml mouse anti-CD28 (BD Biosciences) for 30 minutes at room temperature, and then rinsed again with loading medium to be ready for calcium flux studies. Cells were acquired with FACS LSRII and cell activation was initiated by addition of goat anti-mouse antibody (Jackson ImmunoResearch) to final 10μg/ml. CD4 T cells were also stimulated with 1μM thapsigargin. Kinetics of calcium flux in activated cells were monitored by reading the calcium dependent Fluo4 emission signals at 530nm compared to non-specific Fura red signals at 685nm. Calcium flux was calculated as ratio of Fluo4 to Fura red emission signals.
(In general: Calcium flux is commonly read through the fluorescence of an indicator in the cells.)

The subject of experiment [2] is thapsigargin stimulated human blood. In words: Thapsigargin stimulated whole blood IL-2 production. The experiment is classed as cell-based. Particulars: whole blood diluted with equal volume IMDM, 20 hours. The procedure: Heparinized human blood was diluted with an equal volume of IMDM medium (Life Technologies) supplemented with 2% normal human A/B serum and plated at 200μl/well in 96-well plates for thapsigargin (Alomone) stimulation. CD4 T cells were plated at 5 x 10^5 cells/well in 96-well plates with 200μl medium/well. Blood or T cell samples were pre-treated with blockers or inhibitors for 30 minutes prior to stimulation with thapsigargin at 10μM or other concentrations as indicated for 20 hours. Cytokines in culture supernatants were measured as described in cytokine detection section.
(§2) Cytokines in supernatants collected from blood or T cell cultures were measured with ELISA or electrochemiluminescent assays. IL-2 was measured by ELISA using the human IL-2 Quantikine Kit (R&D Systems). Other cytokines were detected using multiplex human cytokine electro-chemiluminescent kit (Meso Scale Discovery).

In another experiment the test system is human CD4 T cell subsets. The experiment is classed as cell-based. From the text: (§3) Human PBMC were purified from donor blood by Ficoll-Paque (GE Healthcare) density centrifugation. CD4 or CD8 T cells were purified from human PBMC by negative selection using human CD4 or CD8 T cell isolation kit (Miltenyi Biotec) respectively. Naïve or memory CD4 T cells were isolated from CD4 T cells by negative selection using human naïve or memory CD4 T cell isolation kit (Miltenyi Biotec) respectively. Central and effector memory CD4 T cells were separated from memory CD4 T cells using biotinylated anti-CCR7 (BD Biosciences) and streptavidin coated magnetic beads (Miltenyie Biotec). Cells after treatment with antibodies and magnetic beads were purified with autoMACS (Miltenyi Biotec).
(§4) T cells were cultured in 96-well plates (Thermo Scientific) with 200μl medium/well. […]
(§5) Proliferation of T cells was measured by overnight pulsing with 1μCi/well of ^3H-thymidine (Perkin Elmer). […] Filter plates were soaked with scintillant (Perkin Elmer) and radioactivity was counted using a Topcount (Packard).
In order to further understand the activity profile of Kv1.3 blockers on T cells, we compared the effects of Kv1.3 blockers on primary naïve, central memory and effector memory CD4 T cells. […] Purified T cells were activated with anti-CD3 in the presence of mitomycin C treated PBMC and the effects of Kv1.3 blockers on T cell proliferation were monitored and compared to cyclosporine A and BTP2.

Experiment [3] has as its system human CD4 T cells. As to the kind of experiment: Calcium flux in CD4 T cells, anti-CD3/CD28. The experiment is classed as cell-based. Particulars: BTP2 1μM. The procedure:
as §1

In a further experiment the test system is Kv1.3. Particulars: ref [5], [20]–[23]; cited from earlier work.
For experiment [4], the system named is PBMC from allergic rhinitis patients. Type of experiment: cell-based, human. As to the method:
T cells were cultured in 96-well plates (Thermo Scientific) with 200μl medium/well. Culture medium was RPMI-1640 medium supplemented with 2% human A/B serum (Valley Biomedical Prod & Srv Inc.), 2 mM glutamine, 1mM sodium pyruvate, 10mM HEPES, 1mM MEM nonessential amino acid solution, and 100 U/ml each of penicillin G and streptomycin (all culture reagents from Life Technologies except for human serum). T cells were pre-treated with Kv1.3 blockers and other inhibitors for 30 minutes before stimulation. All assays were conducted with samples in duplicates or triplicates.
For T cell pan-activation with beads coated with anti-CD3 and anti-CD28 (eBioscience), T cells at 2 x 10^5 cells/well in 96-well flat-bottom plates were stimulated overnight with anti-CD3 and anti-CD28 coated beads (Miltenyi Biotec) at 2:1 bead/cell ratio or as indicated. For T cell pan-activation with anti-CD3, T cells at 5 x 10^4 cells/well in 96-well U-bottom plates were stimulated for 2 days with 1ng/ml of anti-CD3 in the presence of mitomycin C treated autologous PBMC at 1:1 T cell/PBMC ratio. […]
as §5

Experiment [5] has as its system human CD4 and CD8 T cells. The experiment is classed as cell-based.
Excerpt: as §3, §4, §5, §2

Where two headings read alike, the source gives them in different places.

Turning to `Cc1nnsc1C(=O)Nc1ccc(-n2nc(C(F)(F)F)cc2C(F)(F)F)cc1` [BTP2], the “reduction of calcium flux, in words” value with human CD4 T cells [1] is given as “significantly reduced the calcium flux levels”; in the experiment on human CD4 T cells [3] (anti-CD3/CD28, monitored for 10 minutes), “significantly reduced the calcium flux levels”. Besides, the “inhibition of IL-2 release from thapsigargin stimulated whole blood, in words” value in experiment [2] was “fully efficacious”. In the experiment on human CD4 T cell subsets (maximal efficacious concentrations, naïve, Tcm, Tem CD4 T cells, anti-CD3/PBMC), the “inhibition of proliferation of T cell subsets, in words” value is “complete inhibition”. Besides, the “calcium flux by T cell population, in words” value in the experiment on human CD4 T cells [3] (ShK 1nM, activated CD4 T cells, Fig 4C (anti-CD3/CD28 or thapsigargin)) is given as “reduced calcium flux in all activated T cells”.

Regarding `CC[C@H](C)[C@@H]1NC(=O)[C@@H]2CSSC[C@@H]3NC(=O)[C@H](CCCCN)NC(=O)CNC(=O)[C@H](CC(N)=O)NC(=O)[C@H](CCSC)NC(=O)[C@H](CSSC[C@H](NC(=O)[C@H](CCCCN)NC(=O)[C@@H](NC(=O)[C@H](CC(=O)O)NC(=O)[C@@H](NC(=O)[C@@H]4CCCN4C(=O)[C@@H](NC(=O)CN)C(C)C)[C@@H](C)O)C(C)C)C(=O)N[C@@H](CCCNC(=N)N)C(=O)NCC(=O)N[C@@H](CO)C(=O)N4CCC[C@H]4C(=O)N[C@@H](CCC(N)=O)C(=O)N2)NC(=O)[C@H](CCCCN)NC(=O)CNC(=O)[C@H](Cc2ccccc2)NC(=O)[C@H](CCCNC(=N)N)NC(=O)[C@H](CCSC)NC(=O)CNC(=O)[C@H](C)NC(=O)[C@H](CC(=O)O)NC(=O)[C@H](CCCCN)NC(=O)[C@H](CSSC[C@@H](C(=O)N[C@H](C(=O)N2CCC[C@H]2C(=O)N[C@@H](CCCCN)C(=O)O)[C@@H](C)O)NC(=O)[C@H](Cc2c[nH]cn2)NC3=O)NC(=O)[C@@H]2CCCN2C(=O)[C@H](CCC(N)=O)NC1=O` [OdK2], the “Kv1.3 block, in words” value with Kv1.3 is “potent blockers of Kv1.3”.

For the compound cyclosporine A, the “ragweed proliferative response, in words” value in experiment [4] is “reduced the proliferative response to its basal level”. Moreover, in experiment [2], the “inhibition of IL-2 release from thapsigargin stimulated whole blood, in words” value is given as “fully efficacious”. Moreover, in the experiment on human CD4 T cell subsets, the “inhibition of proliferation of T cell subsets, in words” value is “complete inhibition”. Further, in experiment [5], the “block of T cell activation” value is recorded as approximately 100% and the “inhibition of T cell activation, in words” value was “fully inhibits T cell activation in all stimulation conditions”.

Values taken from PMC5249144, “T Cell Subset and Stimulation Strength-Dependent Modulation of T Cell Activation by Kv1.3 Blockers” (PLoS ONE, 2017).
